Key:
[1] = target: Sodium-dependent noradrenaline transporter (Homo sapiens, UniProt P23975); experiment: DRUGMATRIX: Norepinephrine Transporter radioligand binding (ligand: [125I] RTI-55); type: cell membranes, MDCK, Membrane; conditions: Not Active = under 50% inhibition at 10 µM
[2] = target: 5-hydroxytryptamine receptor 2B (Homo sapiens, UniProt P41595); type: cell membranes, CHO-K1, Membrane; conditions: for Ki: read-out: Ki; as to all read-outs here: in other assays of this panel Not Active means under 50% inhibition at 10 µM
[3] = target: T1, 5-hydroxytryptamine receptor 2C (Homo sapiens, UniProt P28335); experiment: DRUGMATRIX: Serotonin (5-Hydroxytryptamine) 5-HT2C radioligand binding (ligand: [3H] Mesulergine); type: cell membranes, CHO-K1, Membrane; conditions: Not Active = under 50% inhibition at 10 µM; for Ki: read-out: Ki
T1 sequence (P28335 whole entry): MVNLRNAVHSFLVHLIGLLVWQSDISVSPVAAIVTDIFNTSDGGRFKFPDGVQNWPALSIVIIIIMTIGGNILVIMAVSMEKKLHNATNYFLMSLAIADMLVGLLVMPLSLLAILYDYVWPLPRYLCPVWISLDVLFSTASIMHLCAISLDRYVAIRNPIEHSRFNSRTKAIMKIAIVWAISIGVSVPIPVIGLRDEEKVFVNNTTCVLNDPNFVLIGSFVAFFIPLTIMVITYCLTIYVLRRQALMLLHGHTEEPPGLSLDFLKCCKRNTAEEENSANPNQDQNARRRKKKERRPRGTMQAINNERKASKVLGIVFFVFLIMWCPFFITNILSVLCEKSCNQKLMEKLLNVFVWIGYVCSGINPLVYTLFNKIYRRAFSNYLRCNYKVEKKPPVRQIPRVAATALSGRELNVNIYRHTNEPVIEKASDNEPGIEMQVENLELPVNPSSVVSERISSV

Cytochrome P450 2A6 = target: T2, Cytochrome P450 2A6 (Homo sapiens, UniProt P11509); conditions: bti-tn-5b1-4; also: in other assays of this panel Not Active means under 50% inhibition at 10 µM
T2 sequence (P11509 whole entry): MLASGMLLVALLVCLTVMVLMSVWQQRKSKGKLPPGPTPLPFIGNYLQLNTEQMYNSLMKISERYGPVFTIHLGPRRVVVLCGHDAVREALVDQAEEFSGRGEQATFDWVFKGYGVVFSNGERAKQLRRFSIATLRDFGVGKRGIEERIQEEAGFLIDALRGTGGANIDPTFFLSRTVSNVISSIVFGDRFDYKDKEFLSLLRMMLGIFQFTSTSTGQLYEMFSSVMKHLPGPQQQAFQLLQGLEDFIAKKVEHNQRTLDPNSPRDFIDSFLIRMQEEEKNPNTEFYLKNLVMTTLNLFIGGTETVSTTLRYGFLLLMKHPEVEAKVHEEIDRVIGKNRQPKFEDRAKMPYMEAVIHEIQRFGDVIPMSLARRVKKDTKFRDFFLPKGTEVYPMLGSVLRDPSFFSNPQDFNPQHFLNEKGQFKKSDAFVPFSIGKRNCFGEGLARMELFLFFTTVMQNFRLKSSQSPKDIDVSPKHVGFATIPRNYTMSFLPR

Cytochrome P450 2D6 = Cytochrome P450 2D6 (Homo sapiens, UniProt P10635); conditions: bti-tn-5b1-4; also: in other assays of this panel Not Active means under 50% inhibition at 10 µM
Glucocorticoid receptor = target: T3, Glucocorticoid receptor (Homo sapiens, UniProt P04150); conditions: hela s3; also: in other assays of this panel Not Active means under 50% inhibition at 10 µM
T3 sequence (P04150 whole entry): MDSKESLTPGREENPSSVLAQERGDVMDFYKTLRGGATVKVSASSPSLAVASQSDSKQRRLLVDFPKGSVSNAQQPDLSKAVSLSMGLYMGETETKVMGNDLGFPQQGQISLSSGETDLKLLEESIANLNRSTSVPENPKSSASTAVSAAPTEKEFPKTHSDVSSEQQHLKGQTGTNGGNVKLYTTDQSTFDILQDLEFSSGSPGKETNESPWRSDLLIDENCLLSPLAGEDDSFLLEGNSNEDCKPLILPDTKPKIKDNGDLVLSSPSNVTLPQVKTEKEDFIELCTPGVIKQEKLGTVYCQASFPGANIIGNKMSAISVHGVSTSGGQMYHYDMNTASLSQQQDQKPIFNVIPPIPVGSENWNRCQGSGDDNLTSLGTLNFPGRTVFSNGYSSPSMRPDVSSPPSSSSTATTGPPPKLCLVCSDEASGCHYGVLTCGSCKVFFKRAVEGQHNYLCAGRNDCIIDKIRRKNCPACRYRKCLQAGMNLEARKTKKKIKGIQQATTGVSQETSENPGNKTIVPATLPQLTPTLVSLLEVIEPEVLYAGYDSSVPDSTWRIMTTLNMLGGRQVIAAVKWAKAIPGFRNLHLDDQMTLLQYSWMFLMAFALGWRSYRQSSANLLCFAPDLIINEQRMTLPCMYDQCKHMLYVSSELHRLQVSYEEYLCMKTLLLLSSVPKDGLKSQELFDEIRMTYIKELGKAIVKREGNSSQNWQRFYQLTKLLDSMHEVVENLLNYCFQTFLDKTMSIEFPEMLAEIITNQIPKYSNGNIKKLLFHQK

Cytochrome P450 2C9 = Cytochrome P450 2C9 (Homo sapiens, UniProt P11712); conditions: bti-tn-5b1-4; also: in other assays of this panel Not Active means under 50% inhibition at 10 µM
Cytochrome P450 2C9, sequence (P11712 whole entry): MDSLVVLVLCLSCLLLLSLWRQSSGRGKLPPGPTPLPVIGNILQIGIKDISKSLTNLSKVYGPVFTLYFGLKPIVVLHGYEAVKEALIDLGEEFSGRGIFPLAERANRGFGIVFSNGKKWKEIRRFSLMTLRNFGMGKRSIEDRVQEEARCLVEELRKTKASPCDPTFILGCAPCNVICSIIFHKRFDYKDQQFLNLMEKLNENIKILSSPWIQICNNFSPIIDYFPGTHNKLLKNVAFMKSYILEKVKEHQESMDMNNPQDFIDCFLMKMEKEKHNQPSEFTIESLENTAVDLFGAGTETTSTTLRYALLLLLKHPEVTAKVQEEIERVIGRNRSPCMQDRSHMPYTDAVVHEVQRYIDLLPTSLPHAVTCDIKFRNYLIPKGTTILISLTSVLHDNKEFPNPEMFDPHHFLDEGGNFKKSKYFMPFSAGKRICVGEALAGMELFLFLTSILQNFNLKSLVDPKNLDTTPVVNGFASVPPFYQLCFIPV

Sodium-dependent noradrenaline transporter, sequence (P23975 whole entry): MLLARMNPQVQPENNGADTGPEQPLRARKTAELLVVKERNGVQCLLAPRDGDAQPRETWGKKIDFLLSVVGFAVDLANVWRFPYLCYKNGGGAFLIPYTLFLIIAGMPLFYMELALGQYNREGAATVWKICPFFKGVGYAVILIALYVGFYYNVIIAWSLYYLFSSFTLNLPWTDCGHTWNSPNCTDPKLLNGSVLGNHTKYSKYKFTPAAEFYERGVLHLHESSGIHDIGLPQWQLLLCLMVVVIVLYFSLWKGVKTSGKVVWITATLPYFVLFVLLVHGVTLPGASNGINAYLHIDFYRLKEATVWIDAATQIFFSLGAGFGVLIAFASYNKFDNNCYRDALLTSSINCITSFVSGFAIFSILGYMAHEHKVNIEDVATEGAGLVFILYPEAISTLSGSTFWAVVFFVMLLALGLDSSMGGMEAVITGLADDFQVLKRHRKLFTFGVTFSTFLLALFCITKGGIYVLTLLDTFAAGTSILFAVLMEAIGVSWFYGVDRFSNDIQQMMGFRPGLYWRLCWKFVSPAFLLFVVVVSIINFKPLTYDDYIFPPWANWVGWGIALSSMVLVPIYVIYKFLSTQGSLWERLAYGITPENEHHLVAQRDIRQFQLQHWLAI
5-hydroxytryptamine receptor 2B, sequence (P41595 whole entry): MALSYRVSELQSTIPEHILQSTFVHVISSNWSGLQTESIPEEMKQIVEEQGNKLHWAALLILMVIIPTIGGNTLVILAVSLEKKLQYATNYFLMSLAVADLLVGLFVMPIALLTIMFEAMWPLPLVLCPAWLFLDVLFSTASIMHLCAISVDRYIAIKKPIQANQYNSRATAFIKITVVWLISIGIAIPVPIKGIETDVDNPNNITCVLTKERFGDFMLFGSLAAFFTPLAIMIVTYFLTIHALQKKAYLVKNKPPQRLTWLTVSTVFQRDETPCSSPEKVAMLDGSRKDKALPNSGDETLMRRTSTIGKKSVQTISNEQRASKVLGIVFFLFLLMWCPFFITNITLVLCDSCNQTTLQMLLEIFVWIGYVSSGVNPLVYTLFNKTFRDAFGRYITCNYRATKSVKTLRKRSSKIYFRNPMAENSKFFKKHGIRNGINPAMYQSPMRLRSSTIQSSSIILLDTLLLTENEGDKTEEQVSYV
Cytochrome P450 2D6, sequence (P10635 whole entry): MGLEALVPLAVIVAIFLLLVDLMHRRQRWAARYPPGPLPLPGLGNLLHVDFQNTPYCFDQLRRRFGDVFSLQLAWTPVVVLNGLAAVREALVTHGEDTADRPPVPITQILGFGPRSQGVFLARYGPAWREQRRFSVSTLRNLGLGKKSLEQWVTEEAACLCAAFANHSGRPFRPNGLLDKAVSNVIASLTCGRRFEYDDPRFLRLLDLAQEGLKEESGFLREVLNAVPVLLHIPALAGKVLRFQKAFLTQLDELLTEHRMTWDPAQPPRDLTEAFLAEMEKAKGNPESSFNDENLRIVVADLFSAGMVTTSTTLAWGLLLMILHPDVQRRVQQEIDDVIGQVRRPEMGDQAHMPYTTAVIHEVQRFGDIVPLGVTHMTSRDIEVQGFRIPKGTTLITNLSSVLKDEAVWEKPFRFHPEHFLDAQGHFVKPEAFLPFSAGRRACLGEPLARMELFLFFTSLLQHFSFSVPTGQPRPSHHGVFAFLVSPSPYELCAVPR

CCOc1cc(N)c(Cl)cc1C(=O)NCC1CN(Cc2ccc(F)cc2)CCO1 (configuration not stated) [MOSAPRIDE]
IC50 ([1]; mdck): Not Active | IC50 ([2]; read-out: IC50): 296 nM | Ki [2]: 188 nM | IC50 ([3]; read-out: IC50): 397 nM | Ki [3]: 208 nM | IC50 (Cytochrome P450 2A6): Not Active | Ki (Cytochrome P450 2A6): Not Active | IC50 (Cytochrome P450 2D6): Not Active | Ki (Cytochrome P450 2D6): Not Active | IC50 (Glucocorticoid receptor): Not Active

OC[C@@H](O)[C@@H](O)[C@H](O)[C@H](O)CO [MANNITOL]
IC50 ([1]; mdck): Not Active | IC50 ([2]; cho-k1): Not Active | IC50 ([3]; cho-k1): Not Active | IC50 (Cytochrome P450 2A6): Not Active | Ki (Cytochrome P450 2A6): Not Active | IC50 (Cytochrome P450 2C9): Not Active | Ki (Cytochrome P450 2C9): Not Active | IC50 (Cytochrome P450 2D6): Not Active | Ki (Cytochrome P450 2D6): Not Active

Oc1ccc(/C=C/c2cc(O)cc(O)c2)cc1 [RESVERATROL]
IC50 ([1]; read-out: IC50): 2310 nM | Ki ([1]; read-out: Ki): 2290 nM | IC50 ([2]; cho-k1): Not Active | IC50 ([3]; cho-k1): Not Active | IC50 (Cytochrome P450 2A6): Not Active | Ki (Cytochrome P450 2A6): Not Active | IC50 (Cytochrome P450 2D6): Not Active | Ki (Cytochrome P450 2D6): Not Active

CCN(CC)N=O [N-NITROSODIETHYLAMINE]
IC50 ([1]; mdck): Not Active | IC50 ([2]; cho-k1): Not Active | IC50 ([3]; cho-k1): Not Active | IC50 (Cytochrome P450 2A6): Not Active | Ki (Cytochrome P450 2A6): Not Active | IC50 (Cytochrome P450 2C9): Not Active | Ki (Cytochrome P450 2C9): Not Active | IC50 (Cytochrome P450 2D6): Not Active | Ki (Cytochrome P450 2D6): Not Active

C[N+]1(C)[C@@H]2C[C@@H](OC(=O)[C@H](CO)c3ccccc3)C[C@H]1[C@@H]1O[C@@H]12.[Br-] [METHSCOPOLAMINE BROMIDE]
IC50 ([2]; cho-k1): Not Active | IC50 ([3]; cho-k1): Not Active | IC50 (Cytochrome P450 2A6): Not Active | Ki (Cytochrome P450 2A6): Not Active | IC50 (Cytochrome P450 2D6): Not Active | Ki (Cytochrome P450 2D6): Not Active | IC50 (Glucocorticoid receptor): Not Active

CCN(CC)CCNC(=O)c1cc(Cl)c(N)cc1OC [METOCLOPRAMIDE]
IC50 ([1]; mdck): Not Active | IC50 ([2]; read-out: IC50): 630 nM | Ki [2]: 401 nM | IC50 ([3]; read-out: IC50): 2380 nM | Ki [3]: 1250 nM | IC50 (Cytochrome P450 2A6): Not Active | Ki (Cytochrome P450 2A6): Not Active | IC50 (Cytochrome P450 2C9): Not Active | Ki (Cytochrome P450 2C9): Not Active

Cc1cn([C@H]2C=C[C@@H](CO)O2)c(=O)[nH]c1=O [STAVUDINE]
IC50 ([1]; mdck): Not Active | IC50 ([2]; cho-k1): Not Active | IC50 ([3]; cho-k1): Not Active | IC50 (Cytochrome P450 2A6): Not Active | Ki (Cytochrome P450 2A6): Not Active | IC50 (Cytochrome P450 2C9): Not Active | Ki (Cytochrome P450 2C9): Not Active | IC50 (Cytochrome P450 2D6): Not Active | Ki (Cytochrome P450 2D6): Not Active

CN1C[C@H](CNC(=O)OCc2ccccc2)C[C@@H]2c3cccc4c3c(cn4C)C[C@H]21 [METERGOLINE]
IC50 (Cytochrome P450 2A6): Not Active | Ki (Cytochrome P450 2A6): Not Active | IC50 (Cytochrome P450 2C9): Not Active | Ki (Cytochrome P450 2C9): Not Active | IC50 (Glucocorticoid receptor): Not Active

CCN(CC)C(=S)SSC(=S)N(CC)CC
IC50 ([3]; cho-k1): Not Active | IC50 (Cytochrome P450 2A6): Not Active | Ki (Cytochrome P450 2A6): Not Active | IC50 (Cytochrome P450 2C9): Not Active | Ki (Cytochrome P450 2C9): Not Active | IC50 (Cytochrome P450 2D6): Not Active | Ki (Cytochrome P450 2D6): Not Active | IC50 (Glucocorticoid receptor): Not Active

Cc1cc2c(s1)Nc1ccccc1N=C2N1CCN(C)CC1 [OLANZAPINE]
IC50 ([1]; mdck): Not Active | IC50 (Cytochrome P450 2A6): Not Active | Ki (Cytochrome P450 2A6): Not Active | IC50 (Cytochrome P450 2C9): Not Active | Ki (Cytochrome P450 2C9): Not Active | IC50 (Cytochrome P450 2D6): Not Active | Ki (Cytochrome P450 2D6): Not Active | IC50 (Glucocorticoid receptor): Not Active

Nc1nc(N)c2nc(-c3ccccc3)c(N)nc2n1
IC50 ([1]; mdck): Not Active | IC50 ([2]; cho-k1): Not Active | IC50 ([3]; cho-k1): Not Active | IC50 (Cytochrome P450 2A6): Not Active | Ki (Cytochrome P450 2A6): Not Active | IC50 (Glucocorticoid receptor): Not Active

Cc1ccc(S(=O)(=O)NC(=O)NN2CCCCCC2)cc1 [TOLAZAMIDE]
IC50 ([1]; mdck): Not Active | IC50 ([2]; cho-k1): Not Active | IC50 ([3]; cho-k1): Not Active | IC50 (Glucocorticoid receptor): Not Active
